Measurements: patent US7199286B2, “Plant-derived novel pathogen and SAR-induction chemical induced promoters, and fragments thereof” (Syngenta Participations AG, priority 1999, dated 2007)

Tests used:
Assay type in all cases: in vivo, Arabidopsis
PR-1 RNA = test: Quantitative Northern, PR-1 level in wild type and NI16-overexpressing lines after BTH; conditions: 24 hours after induction
From the text: (§1) A NI16 construct is made in binary vector pBAR35S (obtained from Jeff Dangi, UNC-Chapel Hill). First a full-length clone is obtained by cloning the 5′ sequence of NI16 (obtained by 5′ RACE and cloned into AT vector pCR2.1) into the EcoRI site of the original pJG4-5 clone as an EcoRI fragment. Then the entire coding region of NI16 is PCR cloned back into pCR2.1 with the primers 16F and 16 R (Table 1). The resulting plasmid is cut with XbaI and SacI for cloning into pBAR35S. The clone is transformed into Agrobacterium strain GV3101 (Koncz and Schell, 1986). WS—O and nim1-4 plants are transformed using standard procedures and the resulting T1 seed is selected by spraying with a 60 μg/ml solution of BASTA every two days for 6 days after germination. BASTA resistant plants are analyzed for levels of NI16 and PR-1 RNA after 4 weeks.
(§2) 4 WS—O plants expressing NI16 above wild type levels are recovered. All have elevated levels of PR-1 RNA as detected on Northern blots. All 4 plants are taken to the T3 generations. Quantitative Northerns are done on two of the T3 lines, one with a relatively low level of N116 RNA (1-1B) and one with a high level of N116 RNA (2-1B). Northerns are hybridized with NI16 and PR-1 probes. Measurements are taken with a Molecular Dynamics Phosphoimager, which directly measures counts per unit area. The amount of PR-1 RNA correlates directly with the amount of NI16 RNA, i.e., the highest expressers of NI16 have the highest levels of PR-1. (Table 2). […] PR-1 levels are induced at the same rate in the two NI16 lines as the WS—O control, however steady state PR-1 levels are higher, especially at 0 and 10 μm BTH. NI16 may therefore be necessary for the SAR response, and overexpression of NI16 may activate a subset of the response. PR-1 is also elevated in nahG, nim1-1 and nim1-4 plants overexpressing NI16. Out of 34 nim1-1 T1 plants containing the 35S-NI16 construct, 22 have elevated levels of PR-1. Similarly, 18/26 nim1-4 and 20/27 nahG primary transformants have elevated PR-1 levels. In each case, high NI16 expression is correlated with high PR-1 levels. This is significant because nim1 and nahG plants are normally deficient in their ability to induce PR1 in response to pathogens. Furthermore, this provides evidence that overexpression of NI16 can at least partially compensate for the absence of SA and a functional NIM protein in plants.

NI16 gene = NI16 gene induction in NIM1-overexpressing plants treated with BTH
NI16 transcript = NI16 transcript accumulation in nim1-4 plants after BTH treatment; conditions: after 2 and 24 hours of BTH treatment
NI16 RNA [1] = test: Induction of NI16 mRNA by SA and BTH spray, RNA blot hybridization; conditions: WS-O plants sprayed with 5 mM SA or 300 μm BTH
Experimental: RNA is prepared from 4 week old Wassilewskija (WS—O) plants, that are either sprayed with water, a 5 mM solution of sodium salicylate (SA), or a 300 μm solution of benzo-(1,2,3)-thiadiazole-7-carbothioic acid S-methyl ester (BTH). […] RNA extractions and RNA blot hybridizations are performed as described previously by Ausubel et al. (1987). NI16 RNA is induced 5–10 fold within 15 minutes of SA or BTH induction and reaches a peak of approximately 50 fold induction within 2 hours of SA treatment and 25 fold induction with BTH treatment.

NI16 RNA [2] = test: Quantitative Northern, NI16 level in wild type and NI16-overexpressing lines after BTH; conditions: for NI16 level (relative): 24 hours after induction
From the text: as §1, §2

[3] = NI16-overexpressing line 1-1B, 10 μm BTH
[4] = NI16-overexpressing line 1-1B, 100 μm BTH
[5] = NI16-overexpressing line 2-1B, 10 μm BTH
[6] = NI16-overexpressing line 2-1B, 100 μm BTH

SMILES: CSC(=O)c1cccc2nnsc12 [BTH, benzo(1,2,3)thiadiazole-7-carbothioic acid S-methyl ester]
- PR-1 level (relative) (PR-1 RNA; [3]): 30
- PR-1 level (relative) (PR-1 RNA; [4]): 120
- PR-1 level (relative) (PR-1 RNA; [5]): 70
- PR-1 level (relative) (PR-1 RNA; [6]): 140
- PR-1 level (relative) (PR-1 RNA; genotype WS, 10 μm BTH): 30
- PR-1 level (relative) (PR-1 RNA; genotype WS, 100 μm BTH): 90
- NI16 gene induction (NI16 gene): induced
- NI16 transcript accumulation (NI16 transcript): unable to accumulate NI16 transcript
- time NI16 transcript remains highly induced after treatment (NI16 RNA [1]): at least 48 hours
- NI16 RNA peak induction (NI16 RNA [1]; peak, within 2 hours of SA treatment): ~25 fold
- NI16 level (relative) (NI16 RNA [2]; [3]): 1400
- NI16 level (relative) (NI16 RNA [2]; [4]): 1480
- NI16 level (relative) (NI16 RNA [2]; [5]): 14000
- NI16 level (relative) (NI16 RNA [2]; [6]): 12000
- effect on amount of NI16 RNA (NI16 RNA [2]; NI16 transgenic lines, BTH rates lower than normally used for protection to Peronospora parasitica): do not significantly increase the amount of NI16 RNA
- NI16 level (relative) (NI16 RNA [2]; genotype WS, 10 μm BTH): 10
- NI16 level (relative) (NI16 RNA [2]; genotype WS, 100 μm BTH): 90
